Experimental findings from ChEMBL document CHEMBL5143638, “Natural aloe emodin-hybridized sulfonamide aminophosphates as novel potential membrane-perturbing and DNA-intercalating agents against Enterococcus faecalis” (Bioorg Med Chem Lett, 2022) are described below.

Common to all, as to format: functional
One test concerns Klebsiella pneumoniae. Description: Antibacterial activity against Klebsiella pneumoniae assessed as inhibition of bacterial growth measured after 24 hrs by CLSI based broth microdilution method. In general terms: In broth dilution the organism is exposed to a series of concentrations in liquid medium.
Test [1] has as its system Pseudomonas aeruginosa. Description: Antibacterial activity against Pseudomonas aeruginosa ATCC 27853 assessed as inhibition of bacterial growth measured after 24 hrs by CLSI based broth microdilution method.
In the next test the test system is Acinetobacter baumannii. Description: Antibacterial activity against Acinetobacter baumannii assessed as inhibition of bacterial growth measured after 24 hrs by CLSI based broth microdilution method.
In the next test the test system is Enterococcus faecalis. As to the kind of experiment: Antibacterial activity against Enterococcus faecalis assessed as inhibition of bacterial growth measured after 24 hrs by CLSI based broth microdilution method.
Test [2] deals with Staphylococcus aureus. As to the kind of experiment: Antibacterial activity against Staphylococcus aureus ATCC 25923 assessed as inhibition of bacterial growth measured after 24 hrs by CLSI based broth microdilution method.
The test system of test [3] is Pseudomonas aeruginosa. As to the kind of experiment: Antibacterial activity against Pseudomonas aeruginosa assessed as inhibition of bacterial growth measured after 24 hrs by CLSI based broth microdilution method.
The test system of test [4] is Escherichia coli. Description: Antibacterial activity against Escherichia coli assessed as inhibition of bacterial growth measured after 24 hrs by CLSI based broth microdilution method.
Test [5] deals with Staphylococcus aureus. As to the kind of experiment: Antibacterial activity against Staphylococcus aureus assessed as inhibition of bacterial growth measured after 24 hrs by CLSI based broth microdilution method.
Test [6] deals with Staphylococcus aureus. Description: Antibacterial activity against methicillin-resistant Staphylococcus aureus N315 assessed as inhibition of bacterial growth measured after 24 hrs by CLSI based broth microdilution method.
The test system of test [7] is Escherichia coli. Description: Antibacterial activity against Escherichia coli ATCC 25922 assessed as inhibition of bacterial growth measured after 24 hrs by CLSI based broth microdilution method.

≈ marks a conversion by molar mass, not a printed value.

As to `COP(=O)(OC)C(Nc1ccc(S(=O)(=O)Nc2nccs2)cc1)c1cc(O)c2c(c1)C(=O)c1cccc(O)c1C2=O` (stereo not given), the MIC in the test with Klebsiella pneumoniae amounted to 2 µg/mL (≈ 3.25 µM); in the test with Pseudomonas aeruginosa [1], 64 µg/mL (≈ 104 µM); in the test on Acinetobacter baumannii, 8 µg/mL (≈ 13 µM); with Enterococcus faecalis, 32 µg/mL (≈ 52 µM); with Staphylococcus aureus [2], 32 µg/mL (≈ 52 µM); in the test with Pseudomonas aeruginosa [3], 16 µg/mL (≈ 26 µM). Besides, the MIC with Escherichia coli [4] amounted to 1 µg/mL (≈ 1.62 µM); in the test on Staphylococcus aureus [5] it was 8 µg/mL (≈ 13 µM); in the test on Staphylococcus aureus [6] it was 64 µg/mL (≈ 104 µM); in the test with Escherichia coli [7], 64 µg/mL (≈ 104 µM).

Turning to `O=C1c2cccc(O)c2C(=O)c2c(O)cc(C(Nc3ccc(S(=O)(=O)Nc4nccs4)cc3)P(=O)(Oc3ccccc3)Oc3ccccc3)cc21` (stereo not given), the MIC in the test on Klebsiella pneumoniae was determined as 128 µg/mL (≈ 173 µM); with Pseudomonas aeruginosa [1] it was 128 µg/mL (≈ 173 µM); in the test on Acinetobacter baumannii, 64 µg/mL (≈ 86.5 µM); in the test on Enterococcus faecalis it was 64 µg/mL (≈ 86.5 µM); with Staphylococcus aureus [2], 256 µg/mL (≈ 346 µM); in the test on Pseudomonas aeruginosa [3], 32 µg/mL (≈ 43.3 µM). Also, the MIC in the test on Escherichia coli [4] was 128 µg/mL (≈ 173 µM); in the test with Staphylococcus aureus [5], 64 µg/mL (≈ 86.5 µM); in the test with Staphylococcus aureus [6], 64 µg/mL (≈ 86.5 µM); in the test with Escherichia coli [7] it was 64 µg/mL (≈ 86.5 µM).

With `CCCCOP(=O)(OCCCC)C(Nc1ccc(S(=O)(=O)Nc2cc(C)on2)cc1)c1cc(O)c2c(c1)C(=O)c1cccc(O)c1C2=O` (stereo not given), the MIC in the test with Klebsiella pneumoniae came out at 256 µg/mL (≈ 367 µM); in the test with Pseudomonas aeruginosa [1], 64 µg/mL (≈ 91.7 µM); in the test on Acinetobacter baumannii, 64 µg/mL (≈ 91.7 µM); in the test on Enterococcus faecalis it was 256 µg/mL (≈ 367 µM); in the test with Staphylococcus aureus [2], 128 µg/mL (≈ 183 µM); in the test with Pseudomonas aeruginosa [3], 64 µg/mL (≈ 91.7 µM). Further, the minimum inhibitory concentration (MIC) in the test on Escherichia coli [4] is 128 µg/mL (≈ 183 µM); in the test on Staphylococcus aureus [5], 128 µg/mL (≈ 183 µM); in the test with Staphylococcus aureus [6], 16 µg/mL (≈ 22.9 µM); with Escherichia coli [7] it was 64 µg/mL (≈ 91.7 µM).

Turning to `CC(C)OP(=O)(OC(C)C)C(Nc1ccc(S(=O)(=O)Nc2nccs2)cc1)c1cc(O)c2c(c1)C(=O)c1cccc(O)c1C2=O` (stereo not given), the MIC in the test on Klebsiella pneumoniae came to 256 µg/mL (≈ 381 µM); in the test with Pseudomonas aeruginosa [1], 128 µg/mL (≈ 191 µM); in the test with Acinetobacter baumannii it was 256 µg/mL (≈ 381 µM); in the test on Enterococcus faecalis, 256 µg/mL (≈ 381 µM); in the test with Staphylococcus aureus [2] it was 32 µg/mL (≈ 47.6 µM); in the test on Pseudomonas aeruginosa [3], 256 µg/mL (≈ 381 µM). The minimum inhibitory concentration (MIC) with Escherichia coli [4] stood at 256 µg/mL (≈ 381 µM); in the test with Staphylococcus aureus [5], 256 µg/mL (≈ 381 µM); with Staphylococcus aureus [6] it was 256 µg/mL (≈ 381 µM); with Escherichia coli [7] it was 128 µg/mL (≈ 191 µM).

For the molecule `CCCCOP(=O)(OCCCC)C(Nc1ccc(S(=O)(=O)Nc2nccs2)cc1)c1cc(O)c2c(c1)C(=O)c1cccc(O)c1C2=O` (stereo not given), the minimum inhibitory concentration (MIC) in the test with Klebsiella pneumoniae, in the test with Pseudomonas aeruginosa [1], in the test with Acinetobacter baumannii, in the test with Enterococcus faecalis, in the test with Staphylococcus aureus [2] and with Pseudomonas aeruginosa [3] was 256 µg/mL (≈ 366 µM) in each case. Moreover, the minimum inhibitory concentration (MIC) in the test on Escherichia coli [4], in the test with Staphylococcus aureus [5], with Staphylococcus aureus [6] and in the test on Escherichia coli [7] was 256 µg/mL (≈ 366 µM) throughout.

Regarding `O=C1c2cccc(O)c2C(=O)c2c(O)cc(CO)cc21` [ALOE-EMODIN], the MIC in the test on Klebsiella pneumoniae came out at 64 µg/mL (≈ 237 µM); in the test with Pseudomonas aeruginosa [1], 4 µg/mL (≈ 14.8 µM); in the test with Acinetobacter baumannii, 8 µg/mL (≈ 29.6 µM); with Enterococcus faecalis, 32 µg/mL (≈ 118 µM); in the test on Staphylococcus aureus [2], 8 µg/mL (≈ 29.6 µM); in the test on Pseudomonas aeruginosa [3], 16 µg/mL (≈ 59.2 µM). The MIC came out at 8 µg/mL (≈ 29.6 µM) with Escherichia coli [4], 64 µg/mL (≈ 237 µM) with Staphylococcus aureus [5], 16 µg/mL (≈ 59.2 µM) in the test with Staphylococcus aureus [6] and 4 µg/mL (≈ 14.8 µM) in the test with Escherichia coli [7].

Turning to `CCOP(=O)(OCC)C(Nc1ccc(S(=O)(=O)Nc2onc(C)c2C)cc1)c1cc(O)c2c(c1)C(=O)c1cccc(O)c1C2=O` (stereo not given), the MIC with Klebsiella pneumoniae, in the test with Pseudomonas aeruginosa [1], in the test on Acinetobacter baumannii, with Enterococcus faecalis, in the test on Staphylococcus aureus [2] and in the test with Pseudomonas aeruginosa [3] was 256 µg/mL (≈ 390 µM) throughout. For the same molecule, the minimal inhibitory concentration (MIC) turned out to be 256 µg/mL (≈ 390 µM) in the test with Escherichia coli [4], 256 µg/mL (≈ 390 µM) in the test with Staphylococcus aureus [5], 16 µg/mL (≈ 24.4 µM) in the test on Staphylococcus aureus [6] and 256 µg/mL (≈ 390 µM) in the test with Escherichia coli [7].

As for `Cc1cc(NS(=O)(=O)c2ccc(NC(c3cc(O)c4c(c3)C(=O)c3cccc(O)c3C4=O)P(=O)(Oc3ccccc3)Oc3ccccc3)cc2)no1` (stereo not given), the minimal inhibitory concentration (MIC) in the test with Klebsiella pneumoniae came to 128 µg/mL (≈ 174 µM); with Pseudomonas aeruginosa [1], 256 µg/mL (≈ 347 µM); with Acinetobacter baumannii, 64 µg/mL (≈ 86.8 µM); with Enterococcus faecalis it was 64 µg/mL (≈ 86.8 µM); with Staphylococcus aureus [2], 256 µg/mL (≈ 347 µM); in the test with Pseudomonas aeruginosa [3], 64 µg/mL (≈ 86.8 µM). Also, the MIC is 64 µg/mL (≈ 86.8 µM) in the test with Escherichia coli [4], 64 µg/mL (≈ 86.8 µM) in the test on Staphylococcus aureus [5], 64 µg/mL (≈ 86.8 µM) with Staphylococcus aureus [6] and 32 µg/mL (≈ 43.4 µM) in the test on Escherichia coli [7].

In general, MIC refers to the lowest concentration found to suppress growth.
